“And” between values parts separate entries of the source, which are not always exact repeats. Equal values may be shown once.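 1) Cells in 96-well plates. 2) Compound, 48 h, 5 concentrations. 3) Linear interpolation between surrounding doses. 4) Unreached endpoint = highest concentration. Abbreviation: GI50, concentration required for 50% inhibition of growth.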 The source made the active and inactive calls. No stated cut-off is given here; in the data, active = GI50 up to about 1.1 µM and inactive = higher.
Key:
Experiment in all cases: NCI anticancer screen, dose series, 48 h
RXF 393 = test system: RXF 393
SNB-75 = test system: SNB-75
IGROV-1 = test system: IGROV-1
UACC-257 = test system: UACC-257
TK-10 = test system: TK-10
HOP-92 = test system: HOP-92
SF-268 = test system: SF-268
ACHN = test system: ACHN
HCT-15 = test system: HCT-15
A498 = test system: A498
MDA-MB-435 = test system: MDA-MB-435
HCT-116 = test system: HCT-116
NCI/ADR-RES = test system: NCI/ADR-RES
U-251 = test system: U-251
CAKI-1 = test system: CAKI-1
NCI-H226 = test system: NCI-H226
SF-539 = test system: SF-539
KM12 = test system: KM12
COLO 205 = test system: COLO 205
SK-MEL-28 = test system: SK-MEL-28
SK-MEL-5 = test system: SK-MEL-5
DU-145 = test system: DU-145
OVCAR-8 = test system: OVCAR-8
MDA-N = test system: MDA-N
EKVX = test system: EKVX
PC-3 = test system: PC-3
SF-295 = test system: SF-295
M14 = test system: M14
SNB-19 = test system: SNB-19
NCI-H23 = test system: NCI-H23
A549 = test system: A549
SN12C = test system: SN12C
OVCAR-3 = test system: OVCAR-3
UO-31 = test system: UO-31
HT-29 = test system: HT-29
OVCAR-5 = test system: OVCAR-5
SW-620 = test system: SW-620
OVCAR-4 = test system: OVCAR-4
MDA-MB-231 = test system: MDA-MB-231
LOX IMVI = test system: LOX IMVI
SR = test system: SR
SK-OV-3 = test system: SK-OV-3
HCC 2998 = test system: HCC 2998
HOP-62 = test system: HOP-62
NCI-H460 = test system: NCI-H460
UACC-62 = test system: UACC-62
HL-60 = test system: HL-60
K562 = test system: K562
NCI-H522 = test system: NCI-H522

SMILES	GI50 (RXF 393)	GI50 (SNB-75)	GI50 (IGROV-1)	GI50 (UACC-257)	GI50 (TK-10)	GI50 (HOP-92)	GI50 (SF-268)	GI50 (ACHN)	GI50 (HCT-15)	GI50 (U-251)	GI50 (CAKI-1)	GI50 (NCI-H226)	GI50 (SK-MEL-28)	GI50 (SK-MEL-5)	GI50 (OVCAR-8)	GI50 (SF-295)	GI50 (M14)	GI50 (SNB-19)	GI50 (OVCAR-3)	GI50 (UO-31)	other results
COC(=O)/C=C/c1cc(OC)c2c(c1)C(C(=O)OC)C(c1ccc(OC)c(OC)c1)O2 (configuration not stated)	4.94 µM (inactive)	1.95 µM (inactive)	2.27 µM (inactive)	> 100 µM (inactive)	> 100 µM (inactive)	55.8 µM (inactive) and > 88.3 µM (inactive)	–	–	–	–	–	–	–	–	–	–	–	–	–	–	–
CC(=O)N1C(=O)CC2(N=C(C)CC2=O)c2ccccc21 (configuration not stated)	> 10 µM (inactive)	> 10 µM (inactive)	> 10 µM (inactive)	–	> 10 µM (inactive)	> 10 µM (inactive)	> 10 µM (inactive)	> 10 µM (inactive)	> 10000 nM	> 10 µM (inactive)	> 10 µM (inactive)	> 10 µM (inactive)	> 10 µM (inactive)	> 10 µM (inactive)	> 10 µM (inactive)	> 10 µM (inactive)	> 10 µM (inactive)	> 10 µM (inactive)	> 10 µM (inactive)	1.49 µM (inactive)	GI50 (A498): > 10 µM (inactive); GI50 (MDA-MB-435): > 10 µM (inactive); GI50 (HCT-116): > 10 µM (inactive); GI50 (NCI/ADR-RES): > 10 µM (inactive); GI50 (SF-539): 13.2 nM (active); GI50 (KM12): > 10 µM (inactive); GI50 (COLO 205): > 10 µM (inactive); GI50 (DU-145): > 10 µM (inactive); GI50 (MDA-N): > 10 µM (inactive); GI50 (EKVX): > 10 µM (inactive); GI50 (PC-3): > 10 µM (inactive); GI50 (NCI-H23): > 10 µM (inactive); GI50 (A549): > 10 µM (inactive); GI50 (SN12C): > 10 µM (inactive); GI50 (HT-29): > 10 µM (inactive); GI50 (OVCAR-5): > 10 µM (inactive); GI50 (SW-620): > 10 µM (inactive); GI50 (OVCAR-4): > 10 µM (inactive); GI50 (MDA-MB-231): > 10 µM (inactive)
O=C(N/N=C/c1cc(Cl)cc(Cl)c1O)c1ccccc1O	1.31 µM (inactive)	3.05 µM (inactive)	1.69 µM (inactive)	1.63 µM (inactive)	3.06 µM (inactive)	–	0.351 µM (active)	0.346 µM (active)	395 nM	0.445 µM (active)	0.723 µM (active)	1.37 µM (inactive)	1 µM (active)	1.28 µM (inactive)	0.344 µM (active)	0.526 µM (active)	0.521 µM (active)	1.91 µM (inactive)	0.282 µM (active)	1.69 µM (inactive)	GI50 (LOX IMVI): 303 nM (active); GI50 (SR): 281 nM (active); GI50 (SK-OV-3): 929 nM (active); GI50 (HCC 2998): 3.18 µM (inactive); GI50 (HOP-62): 1.67 µM (inactive); GI50 (NCI-H460): 537 nM (active); GI50 (UACC-62): 254 nM (active); GI50 (HL-60): 175 nM (active); GI50 (HT-29): 3.49 µM (inactive); GI50 (OVCAR-5): 2.53 µM (inactive); GI50 (SW-620): 0.735 µM (active); GI50 (K562): 519 nM (active); GI50 (OVCAR-4): 0.22 µM (active); GI50 (NCI-H522): 254 nM (active)
